Source: US11964953B2, “Substituted aminothiazoles as DGKzeta inhibitors for immune activation” (Bayer Aktiengesellschaft, priority 2020, dated 2024)

The molecules below were run against human DGKζ (Homo sapiens (Human), UniProt Q13574) (assay: Human DGKζ kinase activity inhibition assay (ADP-Glo)). Conditions: in vitro human DGKζ kinase activity inhibition assay; read-out: IC50.
Chain of human DGKζ (Q13574 other isoform, or with tags, fused parts or gaps): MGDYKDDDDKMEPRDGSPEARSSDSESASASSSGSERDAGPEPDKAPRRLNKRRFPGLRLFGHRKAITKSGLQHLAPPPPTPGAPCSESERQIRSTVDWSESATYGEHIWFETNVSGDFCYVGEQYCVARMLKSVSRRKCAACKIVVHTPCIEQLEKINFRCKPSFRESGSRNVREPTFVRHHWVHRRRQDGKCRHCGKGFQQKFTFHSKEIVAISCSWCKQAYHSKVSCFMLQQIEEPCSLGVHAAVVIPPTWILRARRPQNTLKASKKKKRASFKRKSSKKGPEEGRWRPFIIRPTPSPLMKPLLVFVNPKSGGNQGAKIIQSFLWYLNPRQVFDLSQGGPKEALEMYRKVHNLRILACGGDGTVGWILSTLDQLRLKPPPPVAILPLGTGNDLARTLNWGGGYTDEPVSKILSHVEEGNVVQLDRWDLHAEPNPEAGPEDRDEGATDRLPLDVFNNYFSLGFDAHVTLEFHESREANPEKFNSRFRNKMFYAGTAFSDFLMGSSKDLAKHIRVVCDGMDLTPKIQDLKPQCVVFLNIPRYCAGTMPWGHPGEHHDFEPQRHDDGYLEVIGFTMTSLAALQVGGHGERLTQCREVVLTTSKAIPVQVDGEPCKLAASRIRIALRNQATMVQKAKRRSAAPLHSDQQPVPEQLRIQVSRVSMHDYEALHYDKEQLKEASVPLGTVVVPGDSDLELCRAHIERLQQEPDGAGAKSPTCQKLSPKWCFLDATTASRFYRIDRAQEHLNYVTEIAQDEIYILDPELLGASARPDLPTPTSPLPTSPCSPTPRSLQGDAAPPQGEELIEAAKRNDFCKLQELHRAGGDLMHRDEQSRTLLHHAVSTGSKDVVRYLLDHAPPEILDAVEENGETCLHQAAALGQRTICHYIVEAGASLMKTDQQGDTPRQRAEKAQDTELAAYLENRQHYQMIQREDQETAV
Assay type: biochemical
How it was run: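 ADP-Glo luminescence, reflecting ADP produced, served as the readout of activity. Full-length human DGKζ, FLAG-tagged at the C-terminus and insect-cell expressed, was used; lipid substrate mix was sonicated with octyl-β-D-glucopyranoside in 50 mM MOPS pH 7.4.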
`CCOC(=O)COc1ccc(C(=O)c2sc(N(c3ccc(F)cc3)C(C)C(N)=O)nc2N)cc1` (racemic) [Example 81, rac-ethyl 2-[4-[4-amino-2-(4-fluoro-N-[2-amino-1-methyl-2-oxo-ethyl]anilino)thiazole-5-carbonyl]phenoxy]acetate] was tested, and the IC50 was 8.71 nM.
`Cc1ccc(N(C)C(=O)COc2ccc(C(=O)c3sc(N(c4ccc(F)cc4)C(C)C(N)=O)nc3N)cc2)cc1` (racemic) [Example 139, rac-2-(N-[4-amino-5-[4-[2-(N,4-dimethylanilino)-2-oxo-ethoxy]benzoyl]thiazol-2-yl]-4-fluoro-anilino)propanamide] showed an IC50 of 56.9 nM.
With `CC(C(N)=O)N(c1ccc(F)cc1)c1nc(N)c(C(=O)c2ccc(N3CCC(C4COC4)CC3)nc2)s1` (racemic) [Example 277, rac-2-(N-[4-amino-5-[6-[4-(oxetan-3-yl)-1-piperidyl]pyridine-3-carbonyl]thiazol-2-yl]-4-fluoro-anilino)propanamide] the IC50 was 494 nM.
In the case of `COc1ccc(C(=O)c2sc(N(c3ccc(Cl)cc3)C(C)C(N)=O)nc2N)cc1` (single isomer, unassigned) [Example 58.1, 2-(N-[4-amino-5-(4-methoxybenzoyl)thiazol-2-yl]-4-chloro-anilino)propanamide], the IC50 is reported as 8 nM.
With `Cc1ccccc1N(c1nc(N)c(C(=O)c2ccccc2)s1)C(C)C(N)=O` (single isomer, unassigned) [Example 77.2, 2-(N-(4-amino-5-benzoyl-thiazol-2-yl)-2-methyl-anilino)propanamide] the IC50 was 10200 nM.
